The numbers were not newly measured in Sander's compilation of Henry's law constants (doi:10.1021/je0002282), which cites them from elsewhere.

This data set is described as follows: Henry solubility constant Hcp at 298.15 K (mol/(m3 Pa)). Conditions: reference: Plyasunov and Shock (2001); cited value.

For `CC(C)C(=O)C(C)C` [2,4-dimethyl-3-pentanone], the “Henry solubility constant Hcp” value was 0.024.

With `CC(C)CC(=O)CC(C)C` [2,6-dimethyl-4-heptanone], the “Henry solubility constant Hcp” value was 0.013.

Regarding `CCCCCC(C)=O` [2-heptanone], the “Henry solubility constant Hcp” value was 0.072.

Take `CCCCC(C)=O` [2-hexanone]: the “Henry solubility constant Hcp” value is 0.098.

In the case of `CCC(=O)C(C)C` [2-methyl-3-pentanone], the “Henry solubility constant Hcp” value was 0.053.

Turning to `CCCCCCCC(C)=O` [2-nonanone], the “Henry solubility constant Hcp” value was 0.037.

Turning to `CCCCCCC(C)=O` [2-octanone], the “Henry solubility constant Hcp” value was 0.058.

As for `CCCC(C)=O` [2-pentanone], the “Henry solubility constant Hcp” value was 0.13.

Turning to `CCCCCCCCCC(C)=O` [2-undecanone], the “Henry solubility constant Hcp” value was 0.019.

`CC(=O)C(C)(C)C` [3,3-dimethyl-2-butanone]: the “Henry solubility constant Hcp” value is 0.045.

Regarding `CCCC(=O)CC` [3-hexanone], the “Henry solubility constant Hcp” value was 0.075.

For the molecule `CC(=O)C(C)C` [3-methyl-2-butanone], the “Henry solubility constant Hcp” value is 0.091.

On to `CCC(=O)CC` [3-pentanone], for which the “Henry solubility constant Hcp” value was 0.11.

In the case of `CCCC(=O)CCC` [4-heptanone], the “Henry solubility constant Hcp” value was 0.061.

As for `CC(=O)CC(C)C` [4-methyl-2-pentanone], the “Henry solubility constant Hcp” value is 0.069.

For the molecule `CC(C)=O` [propanone], the “Henry solubility constant Hcp” value is 0.27.
